{"source": "patent US8492409B2", "about": "“1-substituted pyridyl-pyrazolyl amide compounds and uses thereof” (Sinochem Corporation, priority 2008, dated 2013)", "key": {"[1]": {"tested_on": "beet armyworm (Laphygma exigua Hubner)", "test": "Test against beet armyworm (leaf disc spray)", "assay_type": "in vivo", "conditions": "Spodoptera exigua, foliar, 96 h, after 96 h; for mortality at 10 ppm / mortality at 1 ppm: third instar; for mortality at 0.3 ppm / mortality at 0.6 ppm: parallel test", "protocol": "(§1) According to the solubility of test compounds, the compounds are dissolved in acetone or dimethyl sulfoxide, and then diluted with 0.1% aqueous solution of Tween 80 to form 50 ml test liquid, the content of acetone or dimethyl sulfoxide in the total solution is not more than 10%.\nThe cabbage leaves were perforated to get 1 cm diameter leaf discs by the hole puncher. Certain concentrations of test compounds were sprayed on both sides of the discs at the spray volume of 0.5 ml by Airbrush. Eight test insects (third instar) were introduced on each treatment after drying. Each treatment repeated 3 times. The treated discs were placed in a chamber of 24° C., 60%-70% relative humidity, no light. After 96 h, the number of surviving insects was investigated and the mortality was calculated."}, "[2]": {"tested_on": "tomato late blight (Phytophthora infestans)", "test": "microbe, parasite or virus in culture", "assay_type": "cell-based", "conditions": "240 h, read-out: control efficiency against tomato late blight (rate of fungi inhibition)"}, "[3]": {"tested_on": "cucumber anthracnose (Colletotrichum lagenarium, CA)", "test": "Fungicidal activity test against cucumber anthracnose in vivo", "conditions": "400 ppm spray on potted cucumber seedlings; visual assessment after 5 days"}, "[4]": {"tested_on": "army worm (Mythimna separata)", "test": "Test against army worm (corn leaf dip)", "assay_type": "in vivo", "conditions": "foliar, third instar, after 72 h", "protocol": "as §1\nThe middle part of fresh corn leaves were chosen and cut into 3 cm sects. The sects were dipped into the solution of certain concentration of test compounds for 10 seconds, dried and placed in 9 cm diameter Petri dish. Eight regular health insects (third instar) were introduced on each treatment. Each treatment was repeated for 4 times. The pure water was set as CK. The treated discs were placed in a chamber of 24° C., 60%-70% relative humidity and day light. After 72 h, the number of surviving insects was investigated and the mortality rates were calculated."}, "[5]": {"tested_on": "striped stem borer (Chilo suppressalis (Walker))", "test": "Test against striped stem borer (artificial feed film)", "assay_type": "in vivo", "protocol": "as §1\nThe 6 well culture plates were chosen, 5 mL artificial feed was added into each well. After the feed solidified, 0.2 mL solution of certain concentrations of test compounds was added into per well with a continuous sampler and made the uniform film in the feed surface. Eight regular health insects (second instar) were introduced on each treatment after drying. Each treatment was repeated for 4 times. The pure water was set as CK. The treated discs were placed in a chamber of 24° C., 60%-70% relative humidity and day light. After 72 h, the number of surviving insects was investigated and the mortality was calculated."}, "[6]": {"tested_on": "Diamondback moth (Plutella xylostella)", "test": "Test against diamondback moth (cabbage leaf disc dip)", "assay_type": "in vivo", "conditions": "foliar, third instar, after 72 h", "protocol": "as §1\nThe leaves of cabbage grown in greenhouse were chosen, removed the surface waxy layer and perforated to get 2 cm diameter leaf discs by the hole puncher. The discs were dipped in a solution of certain concentrations of test compounds for 10 seconds, dried and placed in 9 cm diameter Petri dish. Eight regular health insects (third instar) were introduced on each treatment. Each treatment was repeated for 4 times. The pure water was set as CK. The treated discs were placed in a chamber of 24° C., 60%-70% relative humidity and day light. After 72 h, the number of surviving insects was investigated and the mortality was calculated."}, "[7]": {"tested_on": "rice leaf folder (Cnaphalocrocis medinalis Guenee)", "test": "Field test against rice leaf folder", "assay_type": "in vivo", "conditions": "168 h, spray 450 L/ha, after 7 d", "protocol": "A certain concentrations of test compounds were sprayed on leaves at the time of hatching peak of rice leaf folder. Spay volume was 450 L/ha. The section area of rice was 32 m^2. Each treatment was repeated for 3 times. After 7d, the number of surviving insects was investigated and the mortality was calculated."}, "[8]": {"tested_on": "armyworm (Mythimna seperata)", "conditions": "50 ppm; cited from earlier work"}, "[9]": {"tested_on": "fall armyworm (Spodoptera frugiperda)", "conditions": "10 ppm; cited from earlier work"}, "[10]": {"conditions": "10 ppm, read-out: mortality against beet armyworm"}, "[11]": {"conditions": "0.3 ppm, Table 3, read-out: Mortality (%) against beet armyworm"}, "[12]": {"conditions": "parallel test, Table 5, after 72 h"}}, "note": "Like-named read-outs stand apart in the source and are kept apart here."}
{"smiles": "CNC(=O)c1cc(Cl)cc(C)c1NC(=O)c1cc(C)nn1-c1ncc(Cl)cc1Cl", "note": "[Compound 1]", "values": [{"measurement": "mortality at 10 ppm", "setting": "[1]; read-out: mortality against beet armyworm, 10 ppm", "value": "≥ 90", "unit": "%"}, {"measurement": "inhibition at 25 ppm", "setting": "[2]", "value": "> 90", "unit": "%"}, {"measurement": "protective controlling effect against cucumber anthracnose", "setting": "[3]", "value": "more than 90%"}]}
{"smiles": "CNC(=O)c1cc(Cl)cc(C)c1NC(=O)c1cc(C(F)(F)F)nn1-c1ncc(Cl)cc1Cl", "note": "[Compound 3]", "values": [{"measurement": "mortality at 1 ppm", "setting": "[1]", "value": "≥ 90", "unit": "%"}, {"measurement": "mortality at 10 ppm", "setting": "[1]; [10]", "value": "≥ 90", "unit": "%"}]}
{"smiles": "Cc1cc(Cl)cc(C(N)=O)c1NC(=O)c1cc(Br)nn1-c1ncc(Cl)cc1Cl", "note": "[Compound 15]", "values": [{"measurement": "mortality at 10 ppm", "setting": "[1]; [10]", "value": "≥ 90", "unit": "%"}]}
{"smiles": "CNC(=O)c1cc(Cl)cc(C)c1NC(=O)c1cc(Br)nn1-c1ncc(Cl)cc1Cl", "note": "[Compound 18]", "values": [{"measurement": "mortality at 0.3 ppm", "setting": "[1]; [11]", "value": 50, "unit": "%"}, {"measurement": "mortality at 0.3 ppm", "setting": "[1]; 0.3 ppm, Table 4, read-out: Mortality (%) against beet armyworm", "value": 62, "unit": "%"}, {"measurement": "mortality at 0.6 ppm", "setting": "[1]; 0.6 ppm, Table 4, read-out: Mortality (%) against beet armyworm", "value": 100, "unit": "%"}, {"measurement": "mortality at 1 ppm", "setting": "[1]", "value": "≥ 90", "unit": "%"}, {"measurement": "mortality at 10 ppm", "setting": "[1]; [10]", "value": "≥ 90", "unit": "%"}, {"measurement": "mortality at 0.4 ppm", "setting": "[4]", "value": "≥ 90", "unit": "%"}, {"measurement": "mortality at 10 ppm", "setting": "[5]; second instar, after 72 h", "value": "≥ 90", "unit": "%"}]}
{"smiles": "CNC(=O)c1cc(Cl)cc(Cl)c1NC(=O)c1cc(Br)nn1-c1ncc(Cl)cc1Cl", "note": "[Compound 19]", "values": [{"measurement": "mortality at 0.3 ppm", "setting": "[1]; [11]", "value": 87.5, "unit": "%"}, {"measurement": "mortality at 1 ppm", "setting": "[1]", "value": "≥ 90", "unit": "%"}, {"measurement": "mortality at 10 ppm", "setting": "[1]; [10]", "value": "≥ 90", "unit": "%"}, {"measurement": "mortality at 0.4 ppm", "setting": "[4]", "value": "≥ 90", "unit": "%"}, {"measurement": "mortality at 0.8 ppm", "setting": "[6]", "value": "> 90", "unit": "%"}, {"measurement": "mortality at 5 ppm", "setting": "[5]; [12]", "value": 90, "unit": "%"}, {"measurement": "mortality at 10 ppm", "setting": "[5]; [12]", "value": 100, "unit": "%"}, {"measurement": "mortality at 10 ppm", "setting": "[5]; second instar, after 72 h", "value": "≥ 90", "unit": "%"}, {"measurement": "mortality at 30 g/ha", "setting": "[7]", "value": 56, "unit": "%"}, {"measurement": "mortality at 60 g/ha", "setting": "[7]", "value": 63, "unit": "%"}]}
{"smiles": "CCNC(=O)c1cc(Cl)cc(C)c1NC(=O)c1cc(Br)nn1-c1ncc(Cl)cc1Cl", "note": "[Compound 22]", "values": [{"measurement": "mortality at 1 ppm", "setting": "[1]", "value": "≥ 90", "unit": "%"}, {"measurement": "mortality at 10 ppm", "setting": "[1]; [10]", "value": "≥ 90", "unit": "%"}]}
{"smiles": "CNC(=O)c1cc(Cl)cc(C)c1NC(=O)c1cc(Br)nn1-c1ncc(Br)cc1Cl", "note": "[KC1, reference compound]", "values": [{"measurement": "mortality at 0.3 ppm", "setting": "[1]; read-out: Mortality (%) against beet armyworm, 0.3 ppm, Table 3", "value": 0, "unit": "%"}, {"measurement": "mortality at 0.3 ppm", "setting": "[1]; read-out: Mortality (%) against beet armyworm, 0.3 ppm, Table 4", "value": 12.5, "unit": "%"}, {"measurement": "mortality at 0.6 ppm", "setting": "[1]; read-out: Mortality (%) against beet armyworm, 0.6 ppm, Table 4", "value": 75.5, "unit": "%"}, {"measurement": "insecticidal activity against armyworm", "setting": "[8]", "value": "highly effective"}]}
{"smiles": "CNC(=O)c1cc(Cl)cc(C)c1NC(=O)c1cc(Br)nn1-c1ncccc1Cl", "note": "[KC2, chlorantraniliprole, reference compound]", "values": [{"measurement": "mortality at 5 ppm", "setting": "[5]; [12]", "value": 60, "unit": "%"}, {"measurement": "mortality at 10 ppm", "setting": "[5]; [12]", "value": 90, "unit": "%"}, {"measurement": "mortality at 30 g/ha", "setting": "[7]", "value": 34, "unit": "%"}, {"measurement": "mortality at 60 g/ha", "setting": "[7]", "value": 52, "unit": "%"}, {"measurement": "insecticidal activity against fall armyworm", "setting": "[9]", "value": "highly effective"}]}
